According to patent publication US5721207A, “Method for treatment of pain” (Innapharma, Inc., priority 1995, dated 1998):

Assays:
rat [1] = experiment: Rat hot plate analgesiometric test, dose response of single intrathecal elcatonin (Example 8); format: in vivo
Description: The doses tested were 0.2, 0.8, 1.6, 2.4, and 3.6 IU/kg. The desired dose was injected in a volume of 37.5 μL/kg, followed by a catheter wash-out with 10 μL saline, via the intrathecal route.
A total of 113 adult male rats, of weights of 350 g to 400 g, were used. Intrathecal catheters were surgically implanted as described in Example 4.
Data were analyzed for statistical significance, and a point estimate (mean and standard deviation) are used to analyze analgesic activity for each dose of the drug for a selected time period. Nonparametric statistics were calculated to address the level of significance of any difference between control and test group.

rat [2] = experiment: Rat hot plate test, 10 single daily intrathecal doses of elcatonin over 11 days (Example 12); format: in vivo; conditions: 4.4 IU/kg intrathecal, 10 daily doses in two 5 day phases (FIG. 8)
Description: Intrathecal catheters were implanted in rats as described hereinabove, and a 7-10 day period thereafter allowed for full recovery from the surgical procedures. Nine rats were assigned to three treatment groups of three rats per group. The study is conducted in two 5 day treatment phases separated by a 48 hour nontreatment interval. Treatment Group I rats receive no treatment (sham injection). In each treatment phase, Group II rats received five consecutive daily intrathecal doses of sterile physiological saline (vehicle control), for a total of 10 injections per study treatment.
For each treatment, hot plate latencies are determined as described in Example 5 hereinabove at 0 minutes (predose, baseline), 1 hour, 3 hours, and 24 hours following injection on the 1st, 3rd, 5th, 7th, 9th and 11th study days (Table 4).

## [Des-Cys^1,ASU^7 ]-Calcitonin, Eel [Elcatonin]
Rat [1]; 0.2 IU/kg intrathecal (lowest dose tested)
  antinociceptive response (statistics): did not produce a statistically significant response
Rat [1]; 0.2 IU/kg intrathecal single, 0 hr (baseline)
  Hot Plate Latency (Mean ± SEM): 10.6 ± 0.8 s
Rat [1]; 0.2 IU/kg intrathecal single, 0.25 hr after administration
  Hot Plate Latency (Mean ± SEM): 13.0 ± 1.1 s
Rat [1]; 0.2 IU/kg intrathecal single, 0.5 hr after administration
  Hot Plate Latency (Mean ± SEM): 12.9 ± 0.7 s
Rat [1]; 0.2 IU/kg intrathecal single, 1 hr after administration
  Hot Plate Latency (Mean ± SEM): 12.7 ± 0.9 s
Rat [1]; 0.2 IU/kg intrathecal single, 3 hr after administration
  Hot Plate Latency (Mean ± SEM): 13.1 ± 0.7 s
Rat [1]; 0.2 IU/kg intrathecal single, 6 hr after administration
  Hot Plate Latency (Mean ± SEM): 12.1 ± 0.5 s
Rat [1]; 0.2 IU/kg intrathecal single, 24 hr after administration
  Hot Plate Latency (Mean ± SEM): 10.8 ± 0.7 s
Rat [1]; 0.8 IU/kg intrathecal single, 0 hr (baseline)
  Hot Plate Latency (Mean ± SEM): 9.8 ± 0.8 s
Rat [1]; 0.8 IU/kg intrathecal single, 0.25 hr after administration
  Hot Plate Latency (Mean ± SEM): 15.1 ± 1.5 s
Rat [1]; 0.8 IU/kg intrathecal single, 0.5 hr after administration
  Hot Plate Latency (Mean ± SEM): 15.0 ± 1.5 s
Rat [1]; 0.8 IU/kg intrathecal single, 1 hr after administration
  Hot Plate Latency (Mean ± SEM): 15.2 ± 1.3 s
Rat [1]; 0.8 IU/kg intrathecal single, 3 hr after administration
  Hot Plate Latency (Mean ± SEM): 20.0 ± 2.8 s
Rat [1]; 0.8 IU/kg intrathecal single, 6 hr after administration
  Hot Plate Latency (Mean ± SEM): 12.3 ± 1.0 s
Rat [1]; 0.8 IU/kg intrathecal single, 24 hr after administration
  Hot Plate Latency (Mean ± SEM): 11.7 ± 1.0 s
Rat [1]; 0.8 and 1.6 IU/kg intrathecal
  antinociceptive response (statistics): significant antinociception
Rat [1]; 1.6 IU/kg intrathecal single, 0 hr (baseline)
  Hot Plate Latency (Mean ± SEM): 9.2 ± 0.5 s
Rat [1]; 1.6 IU/kg intrathecal single, 0.25 hr after administration
  Hot Plate Latency (Mean ± SEM): 16.4 ± 1.2 s
Rat [1]; 1.6 IU/kg intrathecal single, 0.5 hr after administration
  Hot Plate Latency (Mean ± SEM): 16.0 ± 1.0 s
Rat [1]; 1.6 IU/kg intrathecal single, 1 hr after administration
  Hot Plate Latency (Mean ± SEM): 16.4 ± 1.1 s
Rat [1]; 1.6 IU/kg intrathecal single, 3 hr after administration
  Hot Plate Latency (Mean ± SEM): 15.1 ± 0.9 s
Rat [1]; 1.6 IU/kg intrathecal single, 6 hr after administration
  Hot Plate Latency (Mean ± SEM): 13.6 ± 0.8 s
Rat [1]; 1.6 IU/kg intrathecal single, 24 hr after administration
  Hot Plate Latency (Mean ± SEM): 10.9 ± 0.4 s
Rat [1]; 2.4 IU/kg intrathecal single, 0 hr (baseline)
  Hot Plate Latency (Mean ± SEM): 9.0 ± 0.7 s
Rat [1]; 2.4 IU/kg intrathecal single, 0.25 hr after administration
  Hot Plate Latency (Mean ± SEM): 20.0 ± 1.5 s
Rat [1]; 2.4 IU/kg intrathecal single, 0.5 hr after administration
  Hot Plate Latency (Mean ± SEM): 20.1 ± 1.9 s
Rat [1]; 2.4 IU/kg intrathecal single, 1 hr after administration
  Hot Plate Latency (Mean ± SEM): 19.5 ± 1.8 s
Rat [1]; 2.4 IU/kg intrathecal single, 3 hr after administration
  Hot Plate Latency (Mean ± SEM): 21.8 ± 2.1 s
Rat [1]; 2.4 IU/kg intrathecal single, 6 hr after administration
  Hot Plate Latency (Mean ± SEM): 12.6 ± 1.2 s
Rat [1]; 2.4 IU/kg intrathecal single, 24 hr after administration
  Hot Plate Latency (Mean ± SEM): 10.3 ± 1.2 s
Rat [1]; 2.4 and 3.6 IU/kg intrathecal
  antinociceptive response (statistics): strong antinociception
Rat [1]; 3.6 IU/kg intrathecal single, 0 hr (baseline)
  Hot Plate Latency (Mean ± SEM): 10.4 ± 0.9 s
Rat [1]; 3.6 IU/kg intrathecal single, 0.25 hr after administration
  Hot Plate Latency (Mean ± SEM): 19.4 ± 1.6 s
Rat [1]; 3.6 IU/kg intrathecal single, 0.5 hr after administration
  Hot Plate Latency (Mean ± SEM): 21.4 ± 1.8 s
Rat [1]; 3.6 IU/kg intrathecal single, 1 hr after administration
  Hot Plate Latency (Mean ± SEM): 23.5 ± 2.5 s
Rat [1]; 3.6 IU/kg intrathecal single, 3 hr after administration
  Hot Plate Latency (Mean ± SEM): 19.5 ± 1.0 s
Rat [1]; 3.6 IU/kg intrathecal single, 6 hr after administration
  Hot Plate Latency (Mean ± SEM): 15.7 ± 1.3 s
Rat [1]; 3.6 IU/kg intrathecal single, 24 hr after administration
  Hot Plate Latency (Mean ± SEM): 10.2 ± 1.0 s
Rat [1]; intrathecal, 0.2-3.6 IU/kg
  dose relation of hot plate latencies: increased hot plate latencies in a dose-related fashion
  onset of antinociception after injection: ≤ 15 min
Rat [1]; intrathecal, all doses used
  duration of antinociception post-injection: at least 6 hours
  time of peak antinociception: 30 to 60 min
Rat [1]; intrathecal, most tests
  hot plate latency by 24 hr post-injection: returned to baseline
Rat [1]; intrathecal, three higher doses
  antinociception at 6 hrs after injection: Significant antinociception was also apparent
Rat [1]; rat hot plate
  antinociceptive results, intrathecal compared with intravenous: unexpectedly improved antinociceptive results as compared with intravenous injection
Rat [2]
  analgesic effect over time: cumulative analgesic effect over time
  hot plate latency: hot plate latency is increased
